This note sets out measurements from BindingDB's records for doi:10.1021/jm00048a016 (National Cancer Institute-Frederick, 1994).

This experiment addresses Gastrin/cholecystokinin type B receptor (Cavia porcellus). The experiment is described as follows: Tested for the 50% inhibition level against [125I]- gastrin binding to guinea pig gastric glands.

Broadly, the EC50 is the concentration that produces a half-maximal response. High values mean a less potent agent, low ones a more potent agent. The compound `CSCC[C@H](NC(=O)[C@H](Cc1c[nH]c2ccccc12)NC(=O)CCC(=O)N(Cc1ccccc1)N=NCCCl)C(=O)N[C@@H](CC(=O)O)C(=O)N[C@@H](Cc1ccccc1)C(N)=O` [CBS-4] registered an EC50 of 0.13 µM.
Next, `CSCC[C@H](NC(=O)[C@H](Cc1c[nH]c2ccccc12)NC(=O)CCNC(=O)CCC(=O)N(Cc1ccccc1)N=NCCCl)C(=O)N[C@@H](CC(=O)O)C(=O)N[C@@H](Cc1ccccc1)C(N)=O` [CBS-5]: 0.08 µM.
